Data set [1] deals with cGMP-specific 3',5'-cyclic phosphodiesterase (Homo sapiens, UniProt O76074). The data set can be described thus: Inhibition of Phosphodiesterase 5 from human platelets.
Data set [2] can be described thus: Relative inhibition of PDE1 from bovine heart and PDE5 from human platelets.
Data set [3] in a line: Relative inhibition of PDE2 from rat kidney and PDE5 from human platelets.
In data set [4] the target is Phosphodiesterase 3 and 5 (PDE3 and PDE5) (Homo sapiens) (UniProt O76074+Q14432+Q13370). The data set can be described thus: Relative inhibition of PDE3 and PDE5 from human platelets.
The nature of data set [5]: Relative inhibition of PDE4 from rat kidney and PDE5 from human platelets.
A short description of data set [6]: Relative inhibition of PDE6 from bovine retina and PDE5 from human platelets.
Data set [7] is described as follows: Relaxant effect mediated by PDE5 inhibition in rabbit corpus cavernosum. It is filed as functional, tissue-based, Oryctolagus cuniculus.
The species entered for a further data set is Oryctolagus cuniculus. As to the kind of experiment: Increased mean blood pressure in rabbit corpus carvenosum. It is filed as functional.
The nature of data set [8]: Half life of compound was determined in male dogs. The conditions noted are these: dog, in vivo. In kind it is ADME, organism-based, Canis lupus familiaris.
Data set [9] in a line: Half life of compound was determined in male rats. In kind it is ADME, organism-based. The conditions noted are these: rat, in vivo.
Data set [10] in a line: Bioavailability in dog (male). In kind it is ADME, organism-based, Canis lupus familiaris. The conditions noted are these: in vivo.
Data set [11] is described as follows: Bioavailability in rat (male). It is filed as ADME, organism-based. The note with it: in vivo.

These results are taken from ChEMBL document CHEMBL1145960, “Substituted pyrazolopyridopyridazines as orally bioavailable potent and selective PDE5 inhibitors: potential agents for treatment of erectile dysfunction” (J Med Chem, 2003).

Where only a bound is given, the exact number is not on record here.

In turn, `CCn1ncc2c3c(NCc4ccc(OC)c(Cl)c4)nnc(NCc4ccncc4)c3cnc21` showed a half-maximal inhibitory concentration (IC50) in data set [1] of 0.1 nM. The Ratio in data set [2] is > 10000; in data set [3], > 10000; in data set [4] it was > 10000; in [5] it was 4000; in [6] it was 210.

Regarding `CCCc1nn(C)c2c(=O)[nH]c(-c3cc(S(=O)(=O)N4CCN(C)CC4)ccc3OCC)nc12`, in [7], the 50% effective concentration (EC50) was 19 nM. The median effective dose (ED50) in the data set listed under Oryctolagus cuniculus came out at 0.11 µmol/kg.

With `CCn1ncc2c3c(NCc4ccc(OC)c(Cl)c4)nnc(-n4cnc(C(=O)NC)c4)c3cnc21`, the half-life in data set [8] is 2 h; in data set [9], 1.2 h. For the same compound, the values for the bioavailability in data set [10] and in data set [11] were 42% and 29%, respectively. Further, in data set [7], the half-maximal effective concentration (EC50) worked out at 13 nM. The compound further yielded an IC50 in data set [1] of 0.3 nM. Also, in the data set filed under Oryctolagus cuniculus, the 50% effect level (ED50) was put at a dose of 0.1 µmol/kg. Also, the Ratio in [2] is > 10000; in data set [3], > 10000; in data set [5], > 10000; in data set [6], 150.

Regarding `CCn1ncc2c3c(NCc4ccc(OC)c(Cl)c4)nnc(N4CCC(C(=O)O)CC4)c3cnc21`, it took 0.03 nM to reach half-maximal inhibition in data set [1] (IC50). The Ratio in [2] is > 10000; in data set [3] it was > 10000; in data set [4], > 10000; in [5] it was 7500; in data set [6] it was 30.

In the case of `CCn1ncc2c(NCc3ccc(OC)c(Cl)c3)c(C(=O)NCc3ccncc3)cnc21`, the Ratio in [2] came to 6400; in data set [3], 9200; in data set [5] it was 600; in data set [6], 47.

On to `CCn1ncc2c3c(NCc4ccc(OC)c(Cl)c4)nnc(N4CCC(O)CC4)c3cnc21`, for which the Ratio in [2] worked out at 5700; in [3] it was 4000; in data set [4], 7500; in data set [5], 300; in data set [6], 80.

As a reminder, the IC50 is the concentration needed to halve the response being measured. The term EC50 denotes the concentration at which the effect is half-maximal. A higher EC50 goes with a less potent agent. Broadly, the ED50 is the dose that gives a 50% effect, or the effect in half of the subjects. What is called half-life is the time needed for the level to fall by half in the phase considered. High values mean slow loss, low ones fast loss. The term bioavailability denotes dose-corrected exposure relative to a reference, in per cent. A higher bioavailability goes with much systemic uptake.
